Assay results published in patent US7214676B2, “Spirotricyclic derivatives and their use as phosphodiesterase-7 inhibitors” (Warner-Lambert Company LLC, priority 2001, dated 2007).

Molecular target: T1, PDE7A1 (Homo sapiens, UniProt Q13946)
T1 construct: made in house; host or cells: Sf21 insect cells, baculovirus expression system
Assay: In vitro inhibition of phosphodiesterase 7
Assay type: biochemical
Conditions: substrate cAMP 50 nM, reaction stopped after 10 minutes; read-out: IC50 PDE7
Description: The capacity of the compounds of the invention to inhibit cyclic nucleotide phosphodiesterases was evaluated by measuring their IC50 (concentration necessary to inhibit the enzymatic activity by 50%).
PDE3A3, PDE4D3, PDE7A1 were cloned and expressed in insect cells Sf21 using the baculovirus expression system and we uses directly the cell culture supernatant as enzyme source. The source of PDE1 and of PDE5 were human cell lines (respectively TPH1 human monocytes and MCF7 human breast adenocarcinoma).
They were obtained partially purified on an anion exchange column (Mono Q) according to a method adapted from Lavan B. E., Lakey T., Houslay M. D. Biochemical pharmacology, 1989, 38 (22), 4123–4136.
Measurement of the enzymatic activity for the various types of PDE was then made according to a method adapted from W. J. Thompson et al. 1979, Advances in Cyclic Nucleotide Research, Vol. 10: 69–92, ed. G. Brooker et al. Raven Press, NY.
The substrate used was cGMP for PDE1 and PDE5 and cAMP for PDE 3, PDE 4 and PDE 7. The substrate concentration was 0.2 μM for PDE 1, PDE 3 and PDE 5, 0,25 μM for PDE 4 and 50 nM for PDE 7.
The enzymatic reaction was stopped after 1 hour for PDE 1, PDE 3 and PDE 5 and 10 minutes for PDE 4 and PDE 7.

T1 sequence (Q13946 whole entry, species assumed): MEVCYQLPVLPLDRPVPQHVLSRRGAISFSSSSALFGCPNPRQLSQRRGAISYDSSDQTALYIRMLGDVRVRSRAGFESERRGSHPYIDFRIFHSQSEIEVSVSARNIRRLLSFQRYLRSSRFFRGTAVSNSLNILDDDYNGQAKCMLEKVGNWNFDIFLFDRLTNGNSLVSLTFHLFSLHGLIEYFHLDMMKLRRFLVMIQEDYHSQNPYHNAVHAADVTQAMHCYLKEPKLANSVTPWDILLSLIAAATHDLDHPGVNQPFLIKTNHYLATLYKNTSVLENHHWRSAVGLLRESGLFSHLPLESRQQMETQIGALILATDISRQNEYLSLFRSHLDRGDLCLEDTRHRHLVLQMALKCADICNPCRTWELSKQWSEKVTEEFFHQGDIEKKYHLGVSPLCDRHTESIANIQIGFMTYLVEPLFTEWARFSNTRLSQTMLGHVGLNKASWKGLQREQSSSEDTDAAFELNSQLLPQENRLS

IC50 [µM] | SMILES
0.02 | CN(C)CCCNC(=O)c1cccc(-c2cc(Cl)c3c(c2)C2(CCCCC2)NC(=O)N3)c1 [Example 41, 8′-Chloro-6′-[3-(3-N-dimethylamino-propylcarboxamide)phenyl]spiro[-cyclohexane-1-4′-(3′,4′-dihydro)quinazolin]-2′(1′H)-one]
0.008 | O=C1Nc2c(Cl)cc(-c3ccc(C(=O)N4CCN(c5ncccn5)CC4)cc3)cc2C2(CCCCC2)N1 [Example 51, 8′-Chloro-6′-[4-(4-pyrimidin-2-yl-piperazine-1-carbonyl)phenyl]spiro[-cyclohexane-1-4′-(3′,4′-dihydro)quinazolin]-2′(1′H)-one]
0.013 | O=C1Nc2c(Cl)cc(-c3ccc(C(=O)N4CCN(CC(=O)N5CCOCC5)CC4)cc3)cc2C2(CCCCC2)N1 [Example 53, 8′-Chloro-6′-[4-(4-(2-morpholin-4-yl-2-oxo-ethyl)-piperazine-1-carbonyl)-phenyl]spiro[-cyclohexane-1-4′-(3′,4′-dihydro)quinazolin]-2′(1′H)-one]
0.018 | CN1CCN(C(=O)c2ccc(-c3cc(Cl)c4c(c3)C3(CCCCC3)NC(=O)N4)cc2)CC1 [Example 38, 8′-Chloro-6′-[4-(4-methyl-piperazine-1-carbonyl)phenyl]spiro[cyclohexane-1-4′-(3′,4′-dihydro)quinazolin]-2′(1′H)-one]
0.014 | O=C1Nc2c(Cl)ccc(Cl)c2C2(CCCCC2)N1 [Example 15, 5′,8′-Dichlorospiro[cyclohexane-1-4′-3′,4′-dihydro)quinazolin]-2′(1′H)-one]
0.012 | O=C1Nc2c(Cl)cc(-c3ccc4[nH]ccc4c3)cc2C2(CCCCC2)N1 [Example 34, 8′-Chloro-6′-(1H-indol-5-yl)spiro[cyclohexane-1-4′-(3′,4′-dihydro)quinazolin]-2′(1H)-one]
0.013 | O=C1Nc2c(Cl)cc(-c3ccc(C(=O)N4CCN(CCOCCO)CC4)cc3)cc2C2(CCCCC2)N1 [Example 54]
0.016 | O=C1Nc2c(Cl)cc(-c3ccccc3)cc2C2(CCCCC2)N1 [Example 26, 8′-Chloro-6′-phenylspiro[cyclohexane-1-4′-(3′,4′-dihydro)quinazolin]-2′(1′H)-one]
0.015 | O=C1Nc2c(Cl)cc(-c3ccc(C(=O)N4CCN(CCN5CCOCC5)CC4)cc3)cc2C2(CCCCC2)N1 [Example 52, 8′-Chloro-6′-[4-(4-(2-morpholin-4-yl-ethyl)-piperazine-1-carbonyl)-phenyl]spiro[-cyclohexane-1-4′-(3′,4′-dihydro)quinazolin]-2′(1′H)-one]
